The values that follow come from paper PMC4861610 (Drug Design, Development and Therapy, 2016).

The structures appear in SMILES notation. Bounds are passed on as bounds.

Series [1] addresses FGFR1 kinase (Homo sapiens, UniProt P11362). The experiment in a line: LANCE Ultra TR-FRET kinase assay, FGFR1. The class given is biochemical. The conditions noted are these: for Selectivity ratio: ratio of the second lowest IC50 against the lowest IC50 value among FLT3, FGFR1-3, PDGFR-β, EGFR.
Series [2] addresses T1, FLT3 (Homo sapiens, UniProt P36888).
T1 sequence (P36888 27-993): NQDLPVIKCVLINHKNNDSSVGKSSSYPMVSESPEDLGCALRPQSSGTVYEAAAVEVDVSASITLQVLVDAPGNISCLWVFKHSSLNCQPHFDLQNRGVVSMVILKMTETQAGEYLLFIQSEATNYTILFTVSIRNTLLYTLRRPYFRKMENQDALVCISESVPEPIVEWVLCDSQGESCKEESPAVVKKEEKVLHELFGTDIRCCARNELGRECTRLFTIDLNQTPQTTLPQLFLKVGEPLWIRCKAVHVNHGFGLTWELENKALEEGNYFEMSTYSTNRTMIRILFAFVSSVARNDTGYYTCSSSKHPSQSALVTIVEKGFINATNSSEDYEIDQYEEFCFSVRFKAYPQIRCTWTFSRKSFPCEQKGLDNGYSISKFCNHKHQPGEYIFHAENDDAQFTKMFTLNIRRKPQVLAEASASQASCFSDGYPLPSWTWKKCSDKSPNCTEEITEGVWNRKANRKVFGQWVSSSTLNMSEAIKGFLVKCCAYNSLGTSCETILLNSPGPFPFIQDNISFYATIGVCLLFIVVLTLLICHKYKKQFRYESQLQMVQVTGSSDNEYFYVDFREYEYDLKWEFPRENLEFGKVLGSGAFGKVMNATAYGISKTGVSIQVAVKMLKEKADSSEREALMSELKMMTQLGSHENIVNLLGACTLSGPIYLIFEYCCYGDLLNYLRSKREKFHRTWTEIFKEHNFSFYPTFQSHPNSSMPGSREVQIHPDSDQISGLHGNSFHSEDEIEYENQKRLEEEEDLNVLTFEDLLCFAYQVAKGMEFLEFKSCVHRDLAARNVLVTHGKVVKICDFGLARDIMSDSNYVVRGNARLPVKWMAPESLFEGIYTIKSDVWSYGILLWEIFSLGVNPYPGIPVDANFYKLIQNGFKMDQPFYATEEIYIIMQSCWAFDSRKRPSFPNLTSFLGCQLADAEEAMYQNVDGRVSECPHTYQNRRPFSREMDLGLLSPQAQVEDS
The series is described as follows: LANCE Ultra TR-FRET kinase selectivity assay, FLT3. The class given is biochemical.

Series [3] has as its target FGFR2 (Homo sapiens, UniProt P21802). The series is described as follows: LANCE Ultra TR-FRET kinase selectivity assay, FGFR2. The class given is biochemical.
For series [4], the target named is FGFR3 (Homo sapiens, UniProt P22607). The experiment in a line: LANCE Ultra TR-FRET kinase selectivity assay, FGFR3. The class given is biochemical.
The target of series [5] is PDGFR-β (Homo sapiens, UniProt P09619). The experiment in a line: LANCE Ultra TR-FRET kinase selectivity assay, PDGFR-β. Type of series: biochemical.
For series [6], the target named is EGFR (Homo sapiens, UniProt P00533). The series is described as follows: LANCE Ultra TR-FRET kinase selectivity assay, EGFR. The class given is biochemical.
Series [7] is described as follows: MTT cytotoxicity assay, normal liver HL7702 cells. The class given is cell-based, human. The conditions noted are these: human, HL7702 normal liver cells.
Series [8] relates to HL7702 cells. The series is described as follows: MTT cytotoxicity assay, normal liver HL7702 cells. Type of series: cell-based, human. The conditions noted are these: 2 and 10 µM, Figure 5A and B.

Sequence of FGFR2 (P21802 22-821, species assumed): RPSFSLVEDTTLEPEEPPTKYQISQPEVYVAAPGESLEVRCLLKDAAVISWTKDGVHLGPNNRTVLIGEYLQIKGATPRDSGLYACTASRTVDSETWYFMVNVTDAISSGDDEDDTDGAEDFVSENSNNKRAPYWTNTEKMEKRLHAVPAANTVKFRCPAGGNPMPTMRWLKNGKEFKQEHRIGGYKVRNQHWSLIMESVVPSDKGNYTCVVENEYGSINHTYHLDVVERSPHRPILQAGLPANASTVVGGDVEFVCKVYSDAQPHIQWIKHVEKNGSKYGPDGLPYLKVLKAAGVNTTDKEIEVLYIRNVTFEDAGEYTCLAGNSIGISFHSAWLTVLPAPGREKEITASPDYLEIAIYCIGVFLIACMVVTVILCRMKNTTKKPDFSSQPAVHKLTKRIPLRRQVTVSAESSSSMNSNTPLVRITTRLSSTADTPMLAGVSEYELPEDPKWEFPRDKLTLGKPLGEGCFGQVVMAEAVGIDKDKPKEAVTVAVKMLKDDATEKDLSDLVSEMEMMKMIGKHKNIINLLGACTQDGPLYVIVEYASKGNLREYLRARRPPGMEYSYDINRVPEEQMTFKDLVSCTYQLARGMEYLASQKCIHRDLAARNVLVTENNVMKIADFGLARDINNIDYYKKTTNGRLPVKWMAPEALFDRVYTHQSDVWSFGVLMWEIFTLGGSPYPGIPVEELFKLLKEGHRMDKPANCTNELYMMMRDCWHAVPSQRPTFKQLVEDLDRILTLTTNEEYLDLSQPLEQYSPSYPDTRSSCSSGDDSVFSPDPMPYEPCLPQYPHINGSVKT
Sequence of PDGFR-β (P09619 33-1106, species assumed): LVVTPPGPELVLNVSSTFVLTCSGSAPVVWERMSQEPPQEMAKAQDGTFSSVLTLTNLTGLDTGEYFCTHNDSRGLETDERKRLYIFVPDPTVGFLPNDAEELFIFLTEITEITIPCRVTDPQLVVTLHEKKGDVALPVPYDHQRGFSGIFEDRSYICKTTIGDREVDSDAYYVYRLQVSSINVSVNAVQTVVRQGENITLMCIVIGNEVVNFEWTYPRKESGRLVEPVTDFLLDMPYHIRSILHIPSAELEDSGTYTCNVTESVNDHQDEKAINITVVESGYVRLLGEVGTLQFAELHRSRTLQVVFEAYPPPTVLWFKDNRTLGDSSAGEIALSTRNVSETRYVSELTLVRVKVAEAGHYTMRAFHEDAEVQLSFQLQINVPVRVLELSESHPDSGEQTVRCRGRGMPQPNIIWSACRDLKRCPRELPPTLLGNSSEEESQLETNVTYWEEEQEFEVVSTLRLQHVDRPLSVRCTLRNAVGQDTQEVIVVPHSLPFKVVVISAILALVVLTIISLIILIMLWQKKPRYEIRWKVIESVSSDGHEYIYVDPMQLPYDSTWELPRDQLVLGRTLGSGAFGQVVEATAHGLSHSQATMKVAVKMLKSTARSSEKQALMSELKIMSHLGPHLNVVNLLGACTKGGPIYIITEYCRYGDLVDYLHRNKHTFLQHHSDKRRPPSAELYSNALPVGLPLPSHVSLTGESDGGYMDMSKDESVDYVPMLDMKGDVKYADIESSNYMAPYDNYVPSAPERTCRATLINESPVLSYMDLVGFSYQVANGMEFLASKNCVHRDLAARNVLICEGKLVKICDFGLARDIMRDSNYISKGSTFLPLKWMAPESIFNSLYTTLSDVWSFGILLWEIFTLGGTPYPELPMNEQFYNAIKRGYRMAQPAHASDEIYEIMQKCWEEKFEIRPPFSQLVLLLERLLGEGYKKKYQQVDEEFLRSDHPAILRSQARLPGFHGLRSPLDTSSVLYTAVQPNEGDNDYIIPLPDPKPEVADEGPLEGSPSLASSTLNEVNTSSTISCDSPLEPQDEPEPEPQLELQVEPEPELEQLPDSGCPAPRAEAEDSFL
Sequence of FGFR1 kinase (P11362 478-767 limits assumed): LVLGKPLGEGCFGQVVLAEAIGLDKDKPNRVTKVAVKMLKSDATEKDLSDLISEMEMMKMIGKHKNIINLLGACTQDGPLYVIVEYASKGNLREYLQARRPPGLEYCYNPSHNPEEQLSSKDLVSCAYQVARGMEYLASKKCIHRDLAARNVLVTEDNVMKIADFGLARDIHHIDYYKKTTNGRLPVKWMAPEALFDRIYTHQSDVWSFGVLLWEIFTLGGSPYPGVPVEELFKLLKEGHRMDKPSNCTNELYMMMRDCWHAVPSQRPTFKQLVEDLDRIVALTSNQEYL
Sequence of EGFR (P00533 25-1210, species assumed): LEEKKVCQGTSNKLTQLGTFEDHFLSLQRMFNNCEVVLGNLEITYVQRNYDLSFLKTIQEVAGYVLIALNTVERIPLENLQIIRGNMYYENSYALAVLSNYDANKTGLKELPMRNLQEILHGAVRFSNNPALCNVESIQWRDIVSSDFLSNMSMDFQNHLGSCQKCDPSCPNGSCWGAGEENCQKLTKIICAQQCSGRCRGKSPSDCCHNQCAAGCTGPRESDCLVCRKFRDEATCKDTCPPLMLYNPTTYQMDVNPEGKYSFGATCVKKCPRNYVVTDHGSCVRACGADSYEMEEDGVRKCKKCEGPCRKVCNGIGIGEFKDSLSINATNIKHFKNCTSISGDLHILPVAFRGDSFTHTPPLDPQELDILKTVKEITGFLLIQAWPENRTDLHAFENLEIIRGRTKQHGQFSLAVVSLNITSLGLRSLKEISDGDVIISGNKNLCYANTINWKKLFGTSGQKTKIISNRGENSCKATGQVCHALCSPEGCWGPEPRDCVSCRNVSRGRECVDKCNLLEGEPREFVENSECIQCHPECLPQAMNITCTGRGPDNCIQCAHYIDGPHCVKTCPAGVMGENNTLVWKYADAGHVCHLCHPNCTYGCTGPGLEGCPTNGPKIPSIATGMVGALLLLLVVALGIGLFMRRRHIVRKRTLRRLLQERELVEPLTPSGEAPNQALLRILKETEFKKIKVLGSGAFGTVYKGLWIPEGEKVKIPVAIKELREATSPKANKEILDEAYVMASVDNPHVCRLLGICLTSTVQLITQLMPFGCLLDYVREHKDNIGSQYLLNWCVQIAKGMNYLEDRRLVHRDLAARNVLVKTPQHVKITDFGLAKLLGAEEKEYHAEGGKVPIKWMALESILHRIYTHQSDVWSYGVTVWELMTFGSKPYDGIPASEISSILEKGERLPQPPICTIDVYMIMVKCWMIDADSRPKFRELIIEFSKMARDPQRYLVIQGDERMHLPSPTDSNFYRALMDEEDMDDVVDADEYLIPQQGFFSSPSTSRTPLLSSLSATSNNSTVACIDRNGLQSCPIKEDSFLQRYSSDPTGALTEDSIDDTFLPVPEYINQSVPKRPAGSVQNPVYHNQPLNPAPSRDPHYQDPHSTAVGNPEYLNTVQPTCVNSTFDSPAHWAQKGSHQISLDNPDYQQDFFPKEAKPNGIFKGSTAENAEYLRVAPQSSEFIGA
Sequence of FGFR3 (P22607 23-806, species assumed): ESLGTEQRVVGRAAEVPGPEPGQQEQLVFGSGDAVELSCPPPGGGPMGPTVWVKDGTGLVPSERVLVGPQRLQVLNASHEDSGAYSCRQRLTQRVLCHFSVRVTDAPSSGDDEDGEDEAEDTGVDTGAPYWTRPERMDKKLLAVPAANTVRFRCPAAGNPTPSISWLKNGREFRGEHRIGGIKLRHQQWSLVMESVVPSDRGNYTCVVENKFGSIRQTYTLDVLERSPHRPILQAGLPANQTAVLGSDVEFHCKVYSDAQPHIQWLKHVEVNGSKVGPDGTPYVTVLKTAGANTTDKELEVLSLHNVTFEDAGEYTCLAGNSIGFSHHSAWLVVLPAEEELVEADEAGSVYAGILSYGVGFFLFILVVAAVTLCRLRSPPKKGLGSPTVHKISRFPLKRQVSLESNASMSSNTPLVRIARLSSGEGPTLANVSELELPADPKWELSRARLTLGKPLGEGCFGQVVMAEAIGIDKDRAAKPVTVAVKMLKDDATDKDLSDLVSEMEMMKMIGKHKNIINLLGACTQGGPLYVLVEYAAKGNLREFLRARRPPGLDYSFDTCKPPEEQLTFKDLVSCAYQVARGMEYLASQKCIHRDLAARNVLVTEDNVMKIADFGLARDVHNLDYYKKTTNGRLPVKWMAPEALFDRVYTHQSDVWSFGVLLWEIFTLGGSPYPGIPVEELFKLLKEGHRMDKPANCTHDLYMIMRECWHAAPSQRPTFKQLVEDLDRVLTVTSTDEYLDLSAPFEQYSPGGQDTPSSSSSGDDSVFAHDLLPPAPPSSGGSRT

For `O=c1[nH]c2ccccc2nc1/C=C/c1ccccc1` [A1, (E)-1,2-Dihydro-3-(2-phenylethenyl) quinoxalin-2-one], the half-inhibitory concentration (IC50) in series [1] was 23.2 ± 1.12 µM; in series [2], greater than 100 µM; in series [3] it was greater than 100 µM; in series [4], 89.6 ± 3.32 µM; in series [5] it was greater than 100 µM; in series [6], greater than 100 µM. Moreover, the Selectivity ratio in series [1] is 3.86. The 50% inhibitory concentration (IC50) at 72 h in series [7] was greater than 100 µM.
On to `O=c1[nH]c2ccccc2nc1/C=C/c1ccccc1Cl` [A2, (E)-1,2-Dihydro-3-[2-(2-chlorophenyl)ethenyl]-quinoxalin-2-one], for which the 50% inhibitory concentration (IC50) in series [1] is 21.5 ± 2.24 µM; in series [2], greater than 100 µM; in series [3], greater than 100 µM; in series [4], 75.1 ± 2.56 µM; in series [5], 55.4 ± 1.72 µM; in series [6] it was greater than 100 µM. The Selectivity ratio in series [1] is 2.57. The same molecule returned an IC50 at 72 h in series [7] of 41.5 ± 7.56 µM.
Turning to `Oc1nc2ccccc2nc1/C=C/c1ccc(F)cc1` [A4, (E)-3-[2-(4-Fluorophenyl)ethenyl]-1,2-dihydro-quinoxalin-2-one], the half-maximal inhibitory concentration (IC50) at 72 h in series [7] amounted to 67.9 ± 1.94 µM.
For the molecule `O=c1[nH]c2ccccc2nc1/C=C/c1ccccn1` [A5, (E)-3-[2-(Pyridine-2-yl)ethenyl]-1,2-dihydro-quinoxalin-2-one], in series [1] (at 10.0 µM), the “inhibition ratio of FGFR1” value turned out to be 79.33%. Also, the IC50 in series [2], in series [3], in series [4], in series [5] and in series [6] was greater than 100 µM each time. In series [7], this molecule displayed an IC50 at 72 h greater than 100 µM. The “survival rate of HL7702 cells compared with TKI258” value in series [8] is recorded as “higher survival rate”.
With `O=c1[nH]c2ccccc2nc1/C=C/c1ccccc1F` [A6, (E)-3-[2-(2-Fluorophenyl)ethenyl]-1,2-dihydro-quinoxalin-2-one], the concentration for half-maximal inhibition (IC50) at 72 h in series [7] was greater than 100 µM.
Still for that read-out and setting: in the case of `O=c1[nH]c2ccccc2nc1/C=C/c1cccs1` [A7, (E)-3-[2-(Thiophene-2-yl)ethenyl]-1,2-dihydro-quinoxalin-2-one] it was 83.2 ± 8.12 µM; in that of `O=c1[nH]c2ccccc2nc1/C=C/c1ccco1` [A8, (E)-3-[2-(Furan-2-yl)ethenyl]-1,2-dihydro-quinoxalin-2-one], greater than 100 µM.
Still for that read-out and setting: in the case of `COc1cccc(/C=C/c2nc3ccccc3[nH]c2=O)c1OC` [A9, (E)-1,2-Dihydro-3-[2-(2,3-dimethoxyphenyl)ethenyl]-quinoxalin-2-one] it was greater than 100 µM; in that of `O=c1[nH]c2ccccc2nc1/C=C/c1ccccc1[N+](=O)[O-]` [A10, (E)-1,2-Dihydro-3-[2-(2-nitrophenyl)ethenyl]-quinoxalin-2-one], 68.2 ± 5.96 µM.
Turning to `O=c1[nH]c2ccccc2nc1/C=C/c1ccc(C(F)(F)F)cc1` [A11, (E)-1,2-Dihydro-3-[2-(4-trifluoromethylphenyl)ethenyl]-quinoxalin-2-one], the IC50 at 72 h in series [7] was greater than 100 µM.
In the case of `O=c1[nH]c2ccccc2nc1/C=C/c1ccc2ccccc2c1` [A13, (E)-1,2-Dihydro-3-[2-(naphth-2-yl)ethenyl]-quinoxalin-2-one], in series [7], the IC50 at 72 h is greater than 100 µM.
Same read-out and setting: next, `Cn1c(=O)c(/C=C/c2ccccc2)nc2ccccc21` [B1, (E)-1,2-Dihydro-1-methyl-3-(2-phenylethenyl)-quinoxalin-2-one]: greater than 100 µM.
For the molecule `Cn1c(=O)c(/C=C/c2ccccc2Cl)nc2ccccc21` [B2, (E)-3-[2-(2-Chlorophenyl)ethenyl]-1,2-dihydro-1-methyl-quinoxalin-2-one], the IC50 is 26.1 ± 1.32 µM in series [1]; greater than 100 µM in series [2]; greater than 100 µM in series [3]; greater than 100 µM in series [4]; greater than 100 µM in series [5]; greater than 100 µM in series [6]. Also, the IC50 at 72 h in series [7] was greater than 100 µM.
`Cn1c(=O)c(/C=C/c2ccccc2Br)nc2ccccc21` [B3, (E)-3-[2-(2-Bromophenyl)ethenyl]-1,2-dihydro-1-methyl-quinoxalin-2-one]: the half-maximal inhibitory concentration (IC50) at 72 h in series [7] is 49 ± 1.31 µM.
In series [7], `Cn1c(=O)c(/C=C/c2ccc(F)cc2)nc2ccccc21` [B4, (E)-1,2-Dihydro-3-[2-(4-fluorophenyl)ethenyl]-1-methyl-quinoxalin-2-one] yielded an IC50 at 72 h greater than 100 µM.
In the case of `Cn1c(=O)c(/C=C/c2ccccn2)nc2ccccc21` [B5, (E)-3-[2-(Pyridine-2-yl)ethenyl]-1,2-dihydro-1-methyl-quinoxalin-2-one], the 50% inhibitory concentration (IC50) in series [2] is greater than 100 µM; in series [3], greater than 100 µM; in series [4], greater than 100 µM; in series [5], 89.5 ± 3.56 µM; in series [6], greater than 100 µM.
Regarding `O=c1c(/C=C/c2ccccc2)nc2ccccc2n1Cc1ccccc1` [C1, (E)-1,2-Dihydro-3-(2-phenylethenyl)-1-phenylmethyl-quinoxalin-2-one], the IC50 at 72 h in series [7] is greater than 100 µM.
As for `O=c1c(/C=C/c2ccccc2Cl)nc2ccccc2n1Cc1ccccc1` [C2, (E)-3-[2-(2-Chlorophenyl)ethenyl]-1,2-dihydro-1-phenylmethyl-quinoxalin-2-one], the Selectivity ratio in series [1] came to 3.68. The IC50 in series [2], in series [3], in series [5] and in series [6] was greater than 100 µM each time. In addition, the IC50 at 72 h in series [7] is greater than 100 µM.
In turn, `O=c1c(/C=C/c2ccccc2Br)nc2ccccc2n1Cc1ccccc1` [C3, (E)-3-[2-(2-Bromophenyl)ethenyl]-1,2-dihydro-1-phenylmethyl-quinoxalin-2-one] had an IC50 at 72 h in series [7] greater than 100 µM.
The same measure, in the same setting: in the case of `O=c1c(/C=C/c2ccccc2F)nc2ccccc2n1Cc1ccccc1` [C4, (E)-3-[2-(2-Fluorophenyl)ethenyl]-1,2-dihydro-1-phenylmethyl-quinoxalin-2-one] it was greater than 100 µM; in that of `O=c1c(/C=C/c2ccccn2)nc2ccccc2n1Cc1ccccc1` [C5, (E)-3-[2-(Pyridine-2-yl)ethenyl]-1,2-dihydro-1-phenylmethyl-quinoxalin-2-one], 35.8 ± 2.17 µM.
Turning to `Fc1ccccc1/C=C/c1nc2ccccc2nc1Cl` [D1, (E)-2-Chloro-3-[2-(2-fluorophenyl)ethenyl]-quinoxalin], the IC50 at 72 h in series [7] worked out at 40.2 ± 1.85 µM.
The same measure, in the same setting: in the case of `CN1CCN(c2nc3ccccc3nc2/C=C/c2ccccc2F)CC1` [D3, (E)-2-(4-Methylpiperazin-1-yl)-3-[2-(2-fluorophenyl)ethenyl]-quinoxalin] it was greater than 100 µM.
Same read-out and setting: in the case of `CN1CCN(c2ccc3nc(-c4c(N)c5c(F)cccc5[nH]c4=O)[nH]c3c2)CC1` [TKI258, reference compound] it was 32.8 ± 2.38 µM.
